Measurements reported in patent US20060069132A1, “Azolecarboxamide herbicides” (priority 2004, published 2006).
Where two headings read alike, the source gives them in different places.

How the values were obtained:
[1] = test system: barnyardgrass; assay: Test B pre-/postemergence herbicide test; format: in vivo, Echinochloa crus-galli; settings: for Plant response rating (0 to 100 scale), Barnyardgrass: 0 is no effect
Outline: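 Visual rating, 0 (no effect) to 100 (complete control), versus untreated controls after 13–15 d in greenhouse. Pre- and postemergence applications (postemergence plants 2–18 cm, 1–4 leaves); flooded paddy arm at 2-leaf stage. Compounds in non-phytotoxic solvent plus surfactant.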

[2] = test system: ducksalad; assay: Test B flooded paddy test; format: in vivo, Heteranthera limosa; settings: 1000 g ai/ha, scale 0 to 100 (0 no effect, 100 complete control)
Outline: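 Visual ratings, 0 (no effect) to 100 (complete control), made versus controls after 13–15 d greenhouse. Paddy plants treated at 2-leaf stage; postemergence plants at 1- to 4-leaf stage, 2–18 cm tall.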

[3] = test system: Surinam grass; assay: Test C pre-/postemergence herbicide test; format: in vivo, Urochloa decumbens; settings: for Surinam Grass plant response rating: Preemergence, scale 0 to 100, 0 no effect, 100 complete control
Outline: (§1)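 Emerged plants at the 1- to 4-leaf stage (2–18 cm), or freshly planted seeds, received test chemicals in a non-phytotoxic solvent mixture with surfactant. Response was visually scored against controls after 12 to 14 days in the greenhouse, on a 0 (no effect) to 100 (complete control) scale.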

[4] = test system: large crabgrass; assay: Test C pre-/postemergence herbicide test; format: in vivo, Digitaria sanguinalis; settings: for Crabgrass, Large plant response rating: Preemergence, scale 0 to 100, 0 no effect, 100 complete control
Outline: as §1

[5] = test system: lambsquarters; assay: Test C pre-/postemergence herbicide test; format: in vivo, Chenopodium album; settings: for Lambsquarters plant response rating: Preemergence, scale 0 to 100, 0 no effect, 100 complete control
Outline: as §1

[6] = test system: yellow nutsedge; assay: Test C pre-/postemergence herbicide test; format: in vivo, Cyperus esculentus; settings: for Nutsedge, Yellow plant response rating: Preemergence, scale 0 to 100, 0 no effect, 100 complete control
Outline: as §1

[7] = test system: common ragweed; assay: Test C pre-/postemergence herbicide test; format: in vivo, Ambrosia elatior; set-up: key to Plant response rating, Ragweed: 0 = no effect, 100 = complete control; settings: for Ragweed plant response rating: Preemergence, scale 0 to 100, 0 no effect, 100 complete control
Outline: as §1

[8] = 125 g ai/ha, 100 is complete control, preemergence
[9] = 62 g ai/ha, preemergence, scale 0 to 100
[10] = 500 g ai/ha, scale 0 to 100 (0 no effect, 100 complete control), visual, 12 to 14 days, preemergence
[11] = 250 g ai/ha, scale 0-100, preemergence
[12] = 125 g ai/ha, scale 0 (no effect) to 100 (complete control), visual, 12 to 14 days, preemergence
[13] = 250 g ai/ha, scale 0 to 100 (0 no effect, 100 complete control), visual, 12 to 14 days, preemergence

CCNC(=O)c1ccc(F)c(N(C(C)=O)C(=O)c2cc(C(C)(C)C)nn2CC)c1 [Compound 399]
Plant response rating (0 to 100 scale), Barnyardgrass [1, 8]: 90
Barnyardgrass plant response rating ([1]; 125 g ai/ha, visual rating, scale 0 (no effect) to 100 (complete control), postemergence): 10
Barnyardgrass plant response rating ([1]; Postemergence, 500 g ai/ha, scale 0 (no effect) to 100 (complete control)): 40
Ducksalad plant response rating [2]: 90
Plant response rating, Surinam Grass [3, 9]: 95
Plant response rating (0 = no effect, 100 = complete control), Surinam Grass ([3]; 125 g ai/ha, preemergence): 95
Plant response rating, Surinam Grass [3, 10]: 100
Plant response rating, Crabgrass, Large [4, 9]: 100
Plant response rating (0 = no effect, 100 = complete control), Crabgrass, Large ([4]; 125 g ai/ha, preemergence): 100
Plant response rating, Crabgrass, Large [4, 11]: 100
Plant response rating, Crabgrass, Large [4, 10]: 100
Plant response rating, Lambsquarters [5, 9]: 100
Plant response rating (0 = no effect, 100 = complete control), Lambsquarters ([5]; 125 g ai/ha, preemergence): 100
Plant response rating, Lambsquarters [5, 11]: 100
Plant response rating, Lambsquarters [5, 10]: 100
Plant response rating, Nutsedge, Yellow [6, 9]: 45
Plant response rating (0 = no effect, 100 = complete control), Nutsedge, Yellow ([6]; 125 g ai/ha, preemergence): 75
Plant response rating, Nutsedge, Yellow [6, 10]: 95
Plant response rating, Ragweed [7, 9]: 95
Plant response rating (0 = no effect, 100 = complete control), Ragweed ([7]; 125 g ai/ha, preemergence): 100
Plant response rating, Ragweed [7, 10]: 100

CCNC(=O)c1ccnc(NC(=O)c2cc(C(C)(C)C)nn2CC)c1 [Compound 152]
Barnyardgrass plant response rating ([1]; Postemergence, 250 g ai/ha, scale 0 (no effect) to 100 (complete control)): 40
Barnyardgrass plant response rating ([1]; postemergence, 62 g ai/ha, scale 0 to 100): 30
Ducksalad plant response rating ([2]; visual rating, 13 to 15 days): 80
Plant response rating, Surinam Grass [3, 9]: 40
Plant response rating, Surinam Grass [3, 12]: 60
Surinam Grass plant response rating ([3]; 500 g ai/ha): 100
Plant response rating, Crabgrass, Large [4, 9]: 100
Plant response rating, Crabgrass, Large [4, 12]: 100
Plant response rating, Crabgrass, Large [4, 13]: 100
Crabgrass, Large plant response rating ([4]; 500 g ai/ha): 100
Plant response rating, Lambsquarters [5, 9]: 100
Plant response rating, Lambsquarters [5, 12]: 100
Lambsquarters plant response rating ([5]; 500 g ai/ha): 100
Plant response rating, Nutsedge, Yellow [6, 9]: 10
Plant response rating, Nutsedge, Yellow [6, 12]: 30
Nutsedge, Yellow plant response rating ([6]; 500 g ai/ha): 70
Plant response rating, Ragweed [7, 9]: 85
Plant response rating, Ragweed [7, 12]: 85
Ragweed plant response rating ([7]; 500 g ai/ha): 100

CCc1nn(C(C)(C)C)cc1C(=O)Nc1cccc(C(C)=NO)c1 [Compound 188]
Barnyardgrass plant response rating (0 to 100 scale) ([1]; 125 g ai/ha, 0 = no effect, 100 = complete control, preemergence): 80
Plant response rating, Barnyardgrass ([1]; 500 g ai/ha, visual rating 0-100, 0 no effect, 100 complete control, preemergence): 100
Barnyardgrass plant response rating ([1]; postemergence, 125 g ai/ha, visual rating, scale 0 (no effect) to 100 (complete control)): 10
Barnyardgrass plant response rating ([1]; postemergence, 500 g ai/ha, visual rating, scale 0 (no effect) to 100 (complete control)): 20
Ducksalad plant response rating ([2]; visual rating, 13 to 15 days): 80
Plant response rating, Surinam Grass [3, 9]: 20
Plant response rating, Surinam Grass [3, 12]: 30
Surinam Grass plant response rating ([3]; 500 g ai/ha): 80
Plant response rating, Crabgrass, Large [4, 9]: 95
Plant response rating, Crabgrass, Large [4, 12]: 95
Plant response rating, Crabgrass, Large [4, 13]: 95
Crabgrass, Large plant response rating ([4]; 500 g ai/ha): 100
Plant response rating, Lambsquarters [5, 9]: 95
Plant response rating, Lambsquarters [5, 12]: 100
Lambsquarters plant response rating ([5]; 500 g ai/ha): 100
Plant response rating, Nutsedge, Yellow [6, 9]: 0
Plant response rating, Nutsedge, Yellow [6, 12]: 0
Nutsedge, Yellow plant response rating ([6]; 500 g ai/ha): 0
Plant response rating, Ragweed [7, 9]: 0
Plant response rating, Ragweed [7, 12]: 65
Ragweed plant response rating ([7]; 500 g ai/ha): 100

CCNC(=O)c1ccc(F)c(NC(=O)C2CN(C(C)(C)C)N=C2CC)c1 (stereo not drawn) [Compound 336, 1-(1,1-dimethylethyl)-3-ethyl-N-[5-[(ethylamino)carbonyl]-2-fluorophenyl]-4,5-dihydro-1H-pyrazole-4-carboxamide]
Plant response rating (0 to 100 scale), Barnyardgrass [1, 8]: 100
pest or weed control at 125 g/ha ([1]; Echinochloa crus-galli, post-emergence, 125 g ai/ha, visual rating, scale 0 (no effect) to 100 (complete control), read-out: Barnyardgrass plant response rating): 10%
pest or weed control at 500 g/ha ([1]; Echinochloa crus-galli, post-emergence, postemergence, 500 g ai/ha, scale 0 to 100, 0 is no effect, 100 is complete control, read-out: Barnyardgrass plant response rating): 30%
pest or weed control at 500 g/ha ([1]; Echinochloa crus-galli, pre-emergence, 500 g ai/ha, visual rating, 0 = no effect, 100 = complete control, read-out: Plant response rating, Barnyardgrass): 100%
pest or weed control at 1000 g/ha ([2]; Heteranthera limosa, 336 h, read-out: Ducksalad plant response rating): 90%
pest or weed control at 62 g/ha ([3]; Urochloa decumbens, pre-emergence, 312 h, 62 g ai/ha, preemergence, scale 0 to 100, read-out: Plant response rating, Surinam Grass): 50%
pest or weed control at 250 g/ha ([3]; Urochloa decumbens, pre-emergence, 312 h, 250 g ai/ha, scale 0-100, read-out: Plant response rating, Surinam Grass): 100%
pest or weed control at 500 g/ha ([3]; Urochloa decumbens, pre-emergence, 312 h, 500 g ai/ha, scale 0 to 100 (0 no effect, 100 complete control), visual, 12 to 14 days, read-out: Plant response rating, Surinam Grass): 100%
pest or weed control at 62 g/ha ([4]; Digitaria sanguinalis, pre-emergence, 312 h, 62 g ai/ha, preemergence, scale 0 to 100, read-out: Plant response rating, Crabgrass, Large): 100%
pest or weed control at 125 g/ha ([4]; Digitaria sanguinalis, pre-emergence, 312 h, 125 g ai/ha, scale 0 (no effect) to 100 (complete control), visual, 12 to 14 days, read-out: Plant response rating, Crabgrass, Large): 100%
pest or weed control at 250 g/ha ([4]; Digitaria sanguinalis, pre-emergence, 312 h, 250 g ai/ha, scale 0-100, read-out: Plant response rating, Crabgrass, Large): 100%
pest or weed control at 500 g/ha ([4]; Digitaria sanguinalis, pre-emergence, 312 h, 500 g ai/ha, scale 0 to 100 (0 no effect, 100 complete control), visual, 12 to 14 days, read-out: Plant response rating, Crabgrass, Large): 100%
pest or weed control at 62 g/ha ([5]; Chenopodium album, pre-emergence, 62 g ai/ha, preemergence, scale 0 to 100, read-out: Plant response rating, Lambsquarters): 100%
pest or weed control at 125 g/ha ([5]; Chenopodium album, pre-emergence, 125 g ai/ha, scale 0 (no effect) to 100 (complete control), visual, 12 to 14 days, read-out: Plant response rating, Lambsquarters): 100%
pest or weed control at 250 g/ha ([5]; Chenopodium album, pre-emergence, 250 g ai/ha, scale 0-100, read-out: Plant response rating, Lambsquarters): 100%
pest or weed control at 500 g/ha ([5]; Chenopodium album, pre-emergence, 500 g ai/ha, scale 0 to 100 (0 no effect, 100 complete control), visual, 12 to 14 days, read-out: Plant response rating, Lambsquarters): 100%
pest or weed control at 62 g/ha ([6]; Cyperus, pre-emergence, 62 g ai/ha, preemergence, scale 0 to 100, read-out: Plant response rating, Nutsedge, Yellow): 0%
pest or weed control at 125 g/ha ([6]; Cyperus, pre-emergence, 125 g ai/ha, scale 0 (no effect) to 100 (complete control), visual, 12 to 14 days, read-out: Plant response rating, Nutsedge, Yellow): 5%
pest or weed control at 250 g/ha ([6]; Cyperus, pre-emergence, 250 g ai/ha, scale 0-100, read-out: Plant response rating, Nutsedge, Yellow): 20%
pest or weed control at 500 g/ha ([6]; Cyperus, pre-emergence, 500 g ai/ha, scale 0 to 100 (0 no effect, 100 complete control), visual, 12 to 14 days, read-out: Plant response rating, Nutsedge, Yellow): 60%
pest or weed control at 62 g/ha ([7]; Ambrosia artemisiifolia, pre-emergence, 62 g ai/ha, preemergence, scale 0 to 100, read-out: Plant response rating, Ragweed): 30%
pest or weed control at 250 g/ha ([7]; Ambrosia artemisiifolia, pre-emergence, 250 g ai/ha, scale 0-100, read-out: Plant response rating, Ragweed): 80%
pest or weed control at 500 g/ha ([7]; Ambrosia artemisiifolia, pre-emergence, 500 g ai/ha, scale 0 to 100 (0 no effect, 100 complete control), visual, 12 to 14 days, read-out: Plant response rating, Ragweed): 100%
